Measured values: PubChem BioAssay (NCI)
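Each compound was tested at five concentrations against cells in 96-well plates for 48 hours. At the GI50, growth is halved. TGI denotes the concentration required for complete inhibition of growth.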

How the values were obtained:
Assay in all cases: NCI anticancer screen, dose series, 48 h
HS 578T breast = test system: HS 578T breast
OVCAR-3 ovarian = test system: OVCAR-3 ovarian
SW-620 colon = test system: SW-620 colon
NCI-H460 lung = test system: NCI-H460 lung
MOLT-4 leukemia = test system: MOLT-4 leukemia
IGROV1 ovarian = test system: IGROV1 ovarian
MDA-MB-231 breast = test system: MDA-MB-231 breast
SK-MEL-5 melanoma = test system: SK-MEL-5 melanoma
HOP-62 NSCLC = test system: HOP-62 NSCLC
OVCAR-5 ovarian = test system: OVCAR-5 ovarian
RPMI-8226 leukemia = test system: RPMI-8226 leukemia
HT29 colon = test system: HT29 colon
K-562 leukemia = test system: K-562 leukemia
HCT-116 colon = test system: HCT-116 colon
SK-OV-3 ovarian = test system: SK-OV-3 ovarian
LOX IMVI melanoma = test system: LOX IMVI melanoma
A498 renal = test system: A498 renal
SF-268 CNS = test system: SF-268 CNS
HOP-92 NSCLC = test system: HOP-92 NSCLC
NCI-H522 lung = test system: NCI-H522 lung
RXF 393 renal = test system: RXF 393 renal
SN12C renal = test system: SN12C renal
T-47D breast = test system: T-47D breast
MCF7 breast = test system: MCF7 breast
HCC-2998 colon = test system: HCC-2998 colon
OVCAR-8 ovarian = test system: OVCAR-8 ovarian
MDA-MB-435 = test system: MDA-MB-435
TK-10 renal = test system: TK-10 renal
CAKI-1 renal = test system: CAKI-1 renal
ACHN renal = test system: ACHN renal
SF-295 CNS = test system: SF-295 CNS
KM12 colon = test system: KM12 colon
U251 CNS = test system: U251 CNS
PC-3 prostate = test system: PC-3 prostate
786-0 renal = test system: 786-0 renal
UACC-257 melanoma = test system: UACC-257 melanoma
BT-549 breast = test system: BT-549 breast
OVCAR-4 ovarian = test system: OVCAR-4 ovarian
SNB-75 CNS = test system: SNB-75 CNS
M14 melanoma = test system: M14 melanoma
SK-MEL-28 melanoma = test system: SK-MEL-28 melanoma
SK-MEL-2 melanoma = test system: SK-MEL-2 melanoma
SR leukemia = test system: SR leukemia
A549 NSCLC = test system: A549 NSCLC
SF-539 CNS = test system: SF-539 CNS
COLO 205 colon = test system: COLO 205 colon
SNB-19 CNS = test system: SNB-19 CNS
NCI-H23 lung = test system: NCI-H23 lung
EKVX NSCLC = test system: EKVX NSCLC
CCRF-CEM leukemia = test system: CCRF-CEM leukemia
NCI-H226 lung = test system: NCI-H226 lung
UO-31 renal = test system: UO-31 renal
DU-145 prostate = test system: DU-145 prostate
HCT-15 colon = test system: HCT-15 colon
UACC-62 melanoma = test system: UACC-62 melanoma

## COc1ccc(C2=C(c3cc(OC)c(OC)c(OC)c3)C(=O)OC2)cc1OC
HS 578T breast
  GI50: 123 nM
  TGI: 39100 nM
OVCAR-3 ovarian
  GI50: < 11.2 nM
  TGI: < 20.6 nM
SW-620 colon
  GI50: 105 nM
  TGI: > 100000 nM
NCI-H460 lung
  GI50: < 22.2 nM
  TGI: > 42600 nM
MOLT-4 leukemia
  GI50: 46.6 nM
  TGI: > 100000 nM
IGROV1 ovarian
  GI50: 353 nM
  TGI: > 55600 nM
MDA-MB-231 breast
  GI50: 576 nM
  TGI: > 75900 nM
SK-MEL-5 melanoma
  GI50: 18.2 nM
  TGI: 1500 nM
HOP-62 NSCLC
  GI50: 46.5 nM
  TGI: > 100000 nM
OVCAR-5 ovarian
  GI50: 379 nM
  TGI: > 48400 nM
RPMI-8226 leukemia
  GI50: < 19.9 nM
  TGI: 961 nM
HT29 colon
  GI50: 25.6 nM
  TGI: > 24300 nM
K-562 leukemia
  GI50: < 15.3 nM
  TGI: > 100000 nM
HCT-116 colon
  GI50: 54.8 nM
  TGI: 55500 nM
SK-OV-3 ovarian
  GI50: 8270 nM
  TGI: > 100000 nM
LOX IMVI melanoma
  GI50: 428 nM
  TGI: > 49400 nM
A498 renal
  GI50: 134 nM
  TGI: 21300 nM
SF-268 CNS
  GI50: 90.6 nM
  TGI: 30500 nM
HOP-92 NSCLC
  GI50: 6650 nM
  TGI: > 100000 nM
NCI-H522 lung
  GI50: < 18.9 nM
  TGI: > 46700 nM
RXF 393 renal
  GI50: 14.6 nM
  TGI: > 100000 nM
SN12C renal
  GI50: 567 nM
  TGI: 73100 nM
T-47D breast
  GI50: 54000 nM
  TGI: > 100000 nM
MCF7 breast
  GI50: < 18.7 nM
  TGI: > 100000 nM
HCC-2998 colon
  GI50: 25 nM
  TGI: 299 nM
OVCAR-8 ovarian
  GI50: 163 nM
MDA-MB-435
  GI50: < 10 nM
  TGI: 10.9 nM
TK-10 renal
  GI50: < 28.3 nM
  TGI: 1910 nM
CAKI-1 renal
  GI50: < 10 nM
  TGI: 1240 nM
ACHN renal
  GI50: 67500 nM
  TGI: > 100000 nM
SF-295 CNS
  GI50: < 10 nM
  TGI: 21.7 nM
KM12 colon
  GI50: < 16.4 nM
U251 CNS
  GI50: 187 nM
  TGI: > 100000 nM
PC-3 prostate
  GI50: < 15.1 nM
  TGI: > 100000 nM
786-0 renal
  GI50: 52.2 nM
  TGI: > 62300 nM
UACC-257 melanoma
  GI50: > 38600 nM
  TGI: > 81100 nM
BT-549 breast
  GI50: 12100 nM
  TGI: 97900 nM
OVCAR-4 ovarian
  GI50: 2650 nM
  TGI: > 100000 nM
SNB-75 CNS
  GI50: > 100000 nM
  TGI: > 100000 nM
M14 melanoma
  GI50: 23.1 nM
  TGI: 1760 nM
SK-MEL-28 melanoma
  GI50: 47600 nM
  TGI: > 100000 nM
SK-MEL-2 melanoma
  GI50: 31.3 nM
  TGI: > 100000 nM
SR leukemia
  GI50: < 10 nM
A549 NSCLC
  GI50: 250 nM
  TGI: > 29100 nM
SF-539 CNS
  GI50: 301 nM
  TGI: 4100 nM
COLO 205 colon
  GI50: 295 nM
  TGI: 941 nM
SNB-19 CNS
  GI50: 891 nM
  TGI: > 100000 nM
NCI-H23 lung
  GI50: 25.1 nM
  TGI: 13400 nM
EKVX NSCLC
  GI50: 34500 nM
  TGI: > 100000 nM
CCRF-CEM leukemia
  GI50: < 10 nM
  TGI: > 100000 nM
NCI-H226 lung
  GI50: 6060 nM
  TGI: > 28500 nM
UO-31 renal
  GI50: 284 nM
  TGI: > 50900 nM
DU-145 prostate
  GI50: 821 nM
  TGI: > 100000 nM
HCT-15 colon
  GI50: 35.4 nM
  TGI: > 100000 nM
UACC-62 melanoma
  GI50: 336 nM
  TGI: > 79500 nM
